The values below come from ChEMBL document CHEMBL2424610, “Design, synthesis, and evaluation of 4-(substituted)phenyl-2-thioxo-3,4-dihydro-1H-chromino[4,3-d]pyrimidin-5-one and 4-(substituted)phenyl-3,4-dihydro-1H-chromino[4,3-d]pyrimidine-2,5-dione analogs as antitubercular agents” (Med Chem Res, 2013).

Experiment [1] deals with Mycobacterium tuberculosis. The experiment can be described thus: Antitubercular activity against Mycobacterium tuberculosis H37Rv ATCC 27294 assessed as growth inhibition at 128 uM by luminescence-based low oxygen-recovery assay. Format: functional. The settings on record: read-out: GI.
Experiment [2] deals with Vero. Kind of experiment: Cytotoxicity against african green monkey Vero cells. It is filed as cell-based. The following applies: Chlorocebus sabaeus.
For experiment [3], the system named is Mycobacterium tuberculosis. The experiment can be described thus: Antitubercular activity against Mycobacterium tuberculosis H37Rv ATCC 27294 assessed as growth inhibition at 128 uM after 4 days by microplate Alamar blue assay. Format: functional. The following applies: H37Rv ATCC 27294, 96 h, read-out: GI.

For orientation: IC50 means the concentration that inhibits the measured activity by half.

As for `COc1cc(C2NC(=O)Nc3c2c(=O)oc2ccccc32)ccc1O` (stereo not drawn), the inhibition of growth at 128 µM came out at 1% in experiment [1] and 37% in experiment [3]. Further, in experiment [2], the IC50 was over 128 µM.
Regarding `COc1cc(C2NC(=S)Nc3c2c(=O)oc2ccccc32)ccc1O` (stereo not drawn), the inhibition of growth at 128 µM in experiment [1] and in experiment [3] was 0% each time. In experiment [2], this molecule came in with an IC50 of over 128 µM.
On to `COc1ccc(C2NC(=S)Nc3c2c(=O)oc2ccccc32)cc1` (stereo not drawn), for which the inhibition of growth at 128 µM in experiment [1] and in experiment [3] was 0% throughout. In experiment [2], this molecule returned an IC50 of over 128 µM.
Consider `O=C1Nc2c(c(=O)oc3ccccc23)C(c2ccccc2O)N1` (stereo not drawn), for which the inhibition of growth at 128 µM in experiment [1] is 37%; in experiment [3] it was 45%. The molecule further registered an IC50 in experiment [2] of 122 µM.
In the same order, the values of `COc1ccc(C2NC(=O)Nc3c2c(=O)oc2ccc(C)cc32)cc1OC` (stereo not drawn) are 35%, 55% and over 128 µM.
In the same order, the values of `COc1ccc(C2NC(=O)Nc3c2c(=O)oc2ccccc32)cc1OC` (stereo not drawn) are 0%, 0% and over 128 µM.
Turning to `Cc1ccc2oc(=O)c3c(c2c1)NC(=S)NC3c1cccc(Br)c1` (stereo not drawn), the inhibition of growth at 128 µM in experiment [1] amounted to 61%; in experiment [3] it was 32%. The IC50 in experiment [2] amounted to 47.6 µM.
In the same order, the values of `COc1ccc(C2NC(=S)Nc3c2c(=O)oc2ccc(C)cc32)cc1` (stereo not drawn) are 1%, 0% and over 128 µM.
Regarding `O=C1Nc2c(c(=O)oc3ccccc23)C(c2cccc(Br)c2)N1` (stereo not drawn), the results for the inhibition of growth at 128 µM in experiment [1] and in experiment [3] were 15% and 7%, respectively. The molecule also registered an IC50 in experiment [2] of 106 µM.
`O=c1oc2ccccc2c2c1C(c1ccccc1)NC(=S)N2` (stereo not drawn): the inhibition of growth at 128 µM in experiment [1] is 20%; in experiment [3], 10%. The IC50 in experiment [2] is over 128 µM.
The matching figures for `COc1ccc(C2NC(=O)Nc3c2c(=O)oc2ccc(C)cc32)cc1` (stereo not drawn): 62%, 58% and 101 µM.
The matching figures for `COc1ccc(C2NC(=O)Nc3c2c(=O)oc2ccccc32)cc1` (stereo not drawn): 4%, 8% and 119 µM.
As to `O=C1Nc2c(c(=O)oc3ccccc23)C(c2ccccc2)N1` (stereo not drawn), the inhibition of growth at 128 µM in experiment [1] came to 17%; in experiment [3], 0%. The molecule also gave an IC50 in experiment [2] of 84.7 µM.
Regarding `O=c1oc2ccccc2c2c1C(c1cccc(Br)c1)NC(=S)N2` (stereo not drawn), the inhibition of growth at 128 µM in experiment [1] was determined as 59%; in experiment [3] it was 12%. Besides, in experiment [2], the IC50 worked out at 47.4 µM.
In the same order, the values of `COc1ccc(C2NC(=S)Nc3c2c(=O)oc2ccccc32)cc1OC` (stereo not drawn) are 0%, 0% and over 128 µM.
In the case of `COc1ccc(C2NC(=S)Nc3c2c(=O)oc2ccc(C)cc32)cc1OC` (stereo not drawn), the inhibition of growth at 128 µM in experiment [1] came out at 14%; in experiment [3], 9%. The molecule also had an IC50 in experiment [2] of over 128 µM.
